Square brackets hold non-standard residues; d marks the D form. Ends that are not written are not given here. Peptide text beside a SMILES is read from it. Phe(4-guanidino) = N=C(N)Nc1ccc(C[C@H](N)C(=O)O)cc1; Abu(4-SO3H) = N[C@@H](CCS(=O)(=O)O)C(=O)O
Tests used:
human cancer cell lines = settings: cited from earlier work; for bio-activity of cyclic peptide (active / inactive): PRGPRP warhead combined with non-amphiphilic backbone
[1] = system: NCI-H460 human non-small-cell lung cancer cells; assay: Cell survival with or without 2-deoxyglucose, alamarBlue; type: cell-based; settings: combination with 3.125 mmol 2-DOG versus alone
Excerpt: Since the compounds according to the invention appeared to be causing cell death by necrosis as a result of NAD/ATP depletion, it was hypothesised that their activity could be potentiated by administering the compounds with a glycolysis inhibitor. The cell killing ability of HILR-025 (SEQ ID NO: 15) and HILR-D-07 sodium salt (SEQ ID NO: 30) in the presence and absence of the glycolysis inhibitor 2-deoxyglucose (2-DOG) was therefore assayed.
NCI-H460 human non-small-cell lung cancer cells were contacted with HILR-025 or HILR-D-07 alone or in combination with 3.125 mmol 2-DOG and cell survival was determined using AlamaBlue® cell viability reagent (Life Technologies, Inc.) in accordance with the manufacturer's instructions.

NCI-H460 cells [2] = settings: 96 h
Description: Methods measuring cell viability include the use of alamarBlue® cell viability reagent (Life Technologies, Inc.) (resazurin) with fluorescence detection.
1) NCI-H460 cells were grown in Ham's F12 media supplemented with 10% FBS. 2) Cells were harvested and seeded into 96-well plates at 500 cells/well. 3) Compounds were made up from stock solutions and added directly to cells in doubling dilutions starting at 200 μM. Final DMSO concentration was 0.2%. 4) Cells were grown with compound for 96 hours at 37° C. 5% CO2 in a humidified atmosphere. 5) A resazurin dye composition (AlamarBlue® cell viability reagent (Life Technologies, Inc.)) 10% (v/v) was then added and incubated for a further 4 hours, and fluorescent product detected using the BMG FLUOstar plate reader. 6) Media only background readings were subtracted before data were analysed using a 4-parameter logistic equation in GraphPad Prism.

[3] = system: NCI H460 Human Non-small cell lung cancer; assay: Light microscopy of treated cell cultures; type: cell-based; settings: versus DMSO control
Description: To investigate further the mechanism of action of the anionic warhead, cultures of NCI H460 Human Non-small cell lung cancer were exposed to HILR-025 and HILR-D-07 and observed using light microscopy. A comparative cell culture was treated with DMSO to provide a negative control.

[4] = system: Lactate Dehydrogenase A [LDHA]; assay: LDH activity assay on lysates of treated NCI-H460 cells (Abcam ab102526); type: cell-based, human; settings: NCI-H460 cells treated 24 h or 96 h, normalised to protein; read-out: IC50 for inhibiting the activity of LDH
Description: An LDH activity assay was conducted on samples derived from NCI-H460 cells treated with 2 test compounds (HILR-025 and HILR-030) for either 24h or 96h. […] Therefore a BCA assay was conducted to estimate the total amount of protein present in each LDH assay lysate and this was used to normalise the enzyme activity data. As an indication of cell viability, an Alamar blue assay was also carried out at both timepoints, to serve as an additional point of reference.
2) Cells were harvested and seeded into 96-well plates at either 500 cells/well (for the 96h timepoint) or 5000 cells/well for the 24h timepoint. […] 6) At the end of the assay (24 or 96h), Alamar blue 10% (v/v) was added to one set of plates, incubated for a further 4 hours, and fluorescent product detected using the BMG FLUOstar plate reader. […] 10) LDH activity was measured in the cleared lysates using an LDH activity kit (Abcam, ab102526). 11) After preparation of the LDH activity assay reactions, according to the manufacturer's instructions, absorbance at 450 nm was measured at the initial time to determine (A450)initial 12) Further absorbance readings were taken at 3 minute intervals for up to 15 minutes. […] 16) The LDH activity of each sample was determined by the following equation:
[formula] […] Protein content in remaining cleared lysates was determined using a BCA assay (ThermoScientific). • b. Data were analysed using GraphPad Prism. […]

[5] = system: NCI-H460 human non-small cell lung cancer cells; settings: amphiphilic backbones of different length and composition; cited from earlier work
NCI-H460 cells [6] = assay: HILR-001 with or without 30 nM Olaparib on NCI-H460, alamarBlue and CellTiter-Glo time course; type: cell-based, human; settings: HILR-001 as single agent, particularly evident at later time points
Description: At each time point cell viability was measured by two assay readouts, alamarBlue® and CellTiter-Glo. Conversion of alamarBlue® to a fluorescent product serves as a readout of the metabolic activity of cells, whereas CellTiter-Glo is based on quantification of the ATP present.
2) Cells were harvested and seeded into 96-well plates at 500 cells/well. 3) HILR-001 was made up from a 10 mM stock solution and added directly to cells in doubling dilutions starting at 200 μM. […] The total final DMSO concentration was 0.25%. 4) Cells were grown with compound for 24, 48, 72 or 96 hours at 37° C. 5% CO2 in a humidified atmosphere. 5) AlamarBlue® 10% (v/v) was then added and incubated for a further 4 hours, and fluorescent product detected using the BMG FLUOstar plate reader. 6) On duplicate plates the media was removed from the cells, CellTiter-Glo was diluted in PBS (1:10) and 100 μl added to the cells. 7) Plates were mixed on an orbital shaker for 2 minutes and incubated for a further 10 minutes at room temperature. Luminescent signal was then measured using the BMG FLUOstar plate reader.

For Cyc-[PRGPRPvalklalkalal] [THR79], the “selective killing of human cancer cell lines” value (“selective killing” for short) (human cancer cell lines) is given as “selectively killed a wide range of human cancer cell lines”.

In the case of CC(C)[C@@H]1NC(=O)[C@@H]2CCCN2C(=O)[C@H](CCCNC(=N)N)NC(=O)[C@@H]2CCCN2C(=O)CNC(=O)[C@H](CCCNC(=N)N)NC(=O)[C@@H]2CCCN2C(=O)[C@H](Cc2c[nH]c3ccccc23)NC(=O)[C@H](Cc2c[nH]c3ccccc23)NC(=O)[C@H](CCCNC(=N)N)NC(=O)[C@H](CCCNC(=N)N)NC(=O)[C@H](Cc2c[nH]c3ccccc23)NC(=O)[C@H](Cc2c[nH]c3ccccc23)NC(=O)[C@H](CCCNC(=N)N)NC(=O)[C@H](CCCNC(=N)N)NC(=O)[C@H](Cc2c[nH]c3ccccc23)NC(=O)[C@H](Cc2c[nH]c3ccccc23)NC1=O [HILR-025] (cyclo(PRGPRPVWWRRWWRRWW)), the “cell killing ability with 2-DOG” value [1] is reported as “enhanced by co-administration with 2-DOG”, the IC50 (NCI-H460 cells [2]) is reported as 15 µM and the cell morphology [3] is reported as “Ring-shaped morphology”. The IC50 [4] was 16 µM.

Compound CC(C)[C@@H]1NC(=O)[C@@H]2CCCN2C(=O)[C@H](CCS(=O)(=O)O)NC(=O)[C@@H]2CCCN2C(=O)CNC(=O)[C@H](CCS(=O)(=O)O)NC(=O)[C@@H]2CCCN2C(=O)[C@H](Cc2c[nH]c3ccccc23)NC(=O)[C@H](Cc2c[nH]c3ccccc23)NC(=O)[C@H](CCCNC(=N)N)NC(=O)[C@H](CCCNC(=N)N)NC(=O)[C@H](Cc2c[nH]c3ccccc23)NC(=O)[C@H](Cc2c[nH]c3ccccc23)NC(=O)[C@H](CCCNC(=N)N)NC(=O)[C@H](CCCNC(=N)N)NC(=O)[C@H](Cc2c[nH]c3ccccc23)NC(=O)[C@H](Cc2c[nH]c3ccccc23)NC1=O [HILR-D-06] (cyclo(P[Abu(4-SO3H)]GP[Abu(4-SO3H)]PVWWRRWWRRWW)) has an IC50 (NCI-H460 cells [2]) of 25 µM.

For “Cyc-[PRGPRPVKLALKLALKFP] (cyclic; cyclic peptide; (1)..(18) cyclic peptide) [THR53]”, the “killing NCI-H460 cells (active / inactive)” value [5] is listed as “ACTIVE” and the “selective killing” value (human cancer cell lines) is listed as “selectively killed a wide range of human cancer cell lines”.

For “cyclo-[Pro-Hca-Gly-Pro-Hca-Pro-Val-Trp-Trp-Gpa-Gpa-Trp-Trp-Gpa-Gpa-Trp-Trp] (cyclo(P[Abu(4-SO3H)]GP[Abu(4-SO3H)]PVWW[Phe(4-guanidino)][Phe(4-guanidino)]WW[Phe(4-guanidino)][Phe(4-guanidino)]WW); SMILES CC(C)[C@@H]1NC(=O)[C@@H]2CCCN2C(=O)[C@H](CCS(=O)(=O)O)NC(=O)[C@@H]2CCCN2C(=O)CNC(=O)[C@H](CCS(=O)(=O)O)NC(=O)[C@@H]2CCCN2C(=O)[C@H](Cc2c[nH]c3ccccc23)NC(=O)[C@H](Cc2c[nH]c3ccccc23)NC(=O)[C@H](Cc2ccc(NC(=N)N)cc2)NC(=O)[C@H](Cc2ccc(NC(=N)N)cc2)NC(=O)[C@H](Cc2c[nH]c3ccccc23)NC(=O)[C@H](Cc2c[nH]c3ccccc23)NC(=O)[C@H](Cc2ccc(NC(=N)N)cc2)NC(=O)[C@H](Cc2ccc(NC(=N)N)cc2)NC(=O)[C@H](Cc2c[nH]c3ccccc23)NC(=O)[C@H](Cc2c[nH]c3ccccc23)NC1=O) [HILR-D-07]”, the “cell killing ability with 2-DOG” value [1] was “enhanced by co-administration with 2-DOG” and the cell morphology [3] was “Ring-shaped morphology”.

With CC(C)[C@@H]1NC(=O)[C@@H]2CCCN2C(=O)[C@H](CCC(=O)O)NC(=O)[C@@H]2CCCN2C(=O)CNC(=O)[C@H](CCC(=O)O)NC(=O)[C@@H]2CCCN2C(=O)[C@H](Cc2c[nH]c3ccccc23)NC(=O)[C@H](Cc2c[nH]c3ccccc23)NC(=O)[C@H](CCCNC(=N)N)NC(=O)[C@H](CCCNC(=N)N)NC(=O)[C@H](Cc2c[nH]c3ccccc23)NC(=O)[C@H](Cc2c[nH]c3ccccc23)NC(=O)[C@H](CCCNC(=N)N)NC(=O)[C@H](CCCNC(=N)N)NC(=O)[C@H](Cc2c[nH]c3ccccc23)NC(=O)[C@H](Cc2c[nH]c3ccccc23)NC1=O [HILR-D-02] (cyclo(PEGPEPVWWRRWWRRWW)) the IC50 (NCI-H460 cells [2]) was 38 µM.

For “Cyc-[GGGGGGPRGPRPGGGGGG] [SEQ ID NO: 7] (cyclic; cyclic peptide; (1)..(18) cyclic peptide)”, the “bio-activity of cyclic peptide (active / inactive)” value (“bio-activity … (active / inactive)” below) (human cancer cell lines) is given as “SEQ ID NO: 7: Cyc-[GGGGGGPRGPRPGGGGGG]INACTIVE”.

In the case of “Cyc-[PRGPRPVKLALKLALKLAL] (cyclic; cyclic peptide; (1)..(19) cyclic peptide) [THR52]”, the “killing NCI-H460 cells (active / inactive)” value [5] is given as “INACTIVE”.

In the case of “Cyc-[GGGGGGPRGPRPGGGGGG] [SEQ ID NO: 8] (cyclic; cyclic peptide; (1)..(18) cyclic peptide)”, the “bio-activity … (active / inactive)” value (human cancer cell lines) is listed as “SEQ ID NO: 8: Cyc-[GGGGGGPRGPRPGGGGGG]INACTIVE”.

For “Cyc-[AAGPGGPRGPRPGGPGAA] (cyclic; cyclic peptide; (1)..(18) cyclic peptide) [SEQ ID NO: 9]”, the “bio-activity … (active / inactive)” value (human cancer cell lines) is given as “SEQ ID NO: 9: Cyc-[AAGPGGPRGPRPGGPGAA]INACTIVE”.

For CC(C)C[C@@H]1NC(=O)[C@H](C)NC(=O)[C@H](C(C)C)NC(=O)[C@@H]2CCCN2C(=O)[C@H](CCCNC(=N)N)NC(=O)[C@@H]2CCCN2C(=O)CNC(=O)[C@H](CCCNC(=N)N)NC(=O)[C@@H]2CCCN2C(=O)[C@H](CC(C)C)NC(=O)[C@H](C)NC(=O)[C@H](CC(C)C)NC(=O)[C@H](CCCCN)NC(=O)[C@H](CC(C)C)NC(=O)[C@H](C)NC(=O)[C@H](CC(C)C)NC(=O)[C@H](CCCCN)NC1=O [HILR-001] (cyclo(PRGPRPVALKLALKLAL)), the “killing NCI-H460 cells (active / inactive)” value [5] is given as “ACTIVE”, the “selective killing” value (human cancer cell lines) is given as “selectively killed a wide range of human cancer cell lines” and the “metabolic activity (alamarBlue)” value (NCI-H460 cells [6]) is given as “dose dependent decrease”. For the same compound, the IC50 (NCI-H460 cells [2]) was 98 µM.

For “-Pro-Glu-Gly-Pro-Glu-Pro- (PEGPEP; not fully specified; printed as -Pro-Glu-Gly-Pro-Glu-Pro-) [anionic hexapeptide, comparative peptide]”, the “activity of anionic hexapeptide” value (human cancer cell lines; linear hexapeptide, earlier study) is given as “inactive”.

In the case of “Cyc-[AAAGGGPRGPRPGGGAAA] (cyclic; Cyclic peptide; (1)..(18) cyclic peptide) [SEQ ID NO: 6]”, the “bio-activity … (active / inactive)” value (human cancer cell lines) is listed as “SEQ ID NO: 6: Cyc-[AAAGGGPRGPRPGGGAAA]INACTIVE”.

Source: patent publication US20190046600A1, “COMPOSITIONS AND USES THEREOF” (priority 2016, published 2019)
